The results in this text go back to patent publication US11083717B2, “Compositions and methods for drug sensitization of parasites” (The Texas A&M University System, priority 2015, dated 2021).

Usually half-life stands for the time in which the quantity being followed falls by half. Read a high half-life as slow loss. The Cmax is the highest concentration seen after dosing. Usually Tmax stands for the time from dosing to the highest level. Broadly, the bioavailability is dose-corrected exposure relative to a reference, in per cent. High values mean good availability, low ones poor availability.

Each structure is given as a SMILES string. Like-named read-outs stand apart in the source and are kept apart here. Some results are limits rather than exact numbers.

The test system of one series is S. cerevisiae. The experiment in a line: in vitro. The conditions noted are these: Saccharomyces cerevisiae.
The subject of the next series is human fibroblast. The experiment in a line: in vitro. To be noted: human.
In series [1] the target is Human ether-a-go-go-related gene (hERG) (Homo sapiens, UniProt Q12809). The experiment in a line: hERG test (potential cardiotoxicity). The conditions noted are these: read-out: hERG (Abbvie). The series is classed as biochemical. A general note: Block of hERG is tested as a sign of cardiac risk.
Chain of Human ether-a-go-go-related gene (hERG) (Q12809 whole entry): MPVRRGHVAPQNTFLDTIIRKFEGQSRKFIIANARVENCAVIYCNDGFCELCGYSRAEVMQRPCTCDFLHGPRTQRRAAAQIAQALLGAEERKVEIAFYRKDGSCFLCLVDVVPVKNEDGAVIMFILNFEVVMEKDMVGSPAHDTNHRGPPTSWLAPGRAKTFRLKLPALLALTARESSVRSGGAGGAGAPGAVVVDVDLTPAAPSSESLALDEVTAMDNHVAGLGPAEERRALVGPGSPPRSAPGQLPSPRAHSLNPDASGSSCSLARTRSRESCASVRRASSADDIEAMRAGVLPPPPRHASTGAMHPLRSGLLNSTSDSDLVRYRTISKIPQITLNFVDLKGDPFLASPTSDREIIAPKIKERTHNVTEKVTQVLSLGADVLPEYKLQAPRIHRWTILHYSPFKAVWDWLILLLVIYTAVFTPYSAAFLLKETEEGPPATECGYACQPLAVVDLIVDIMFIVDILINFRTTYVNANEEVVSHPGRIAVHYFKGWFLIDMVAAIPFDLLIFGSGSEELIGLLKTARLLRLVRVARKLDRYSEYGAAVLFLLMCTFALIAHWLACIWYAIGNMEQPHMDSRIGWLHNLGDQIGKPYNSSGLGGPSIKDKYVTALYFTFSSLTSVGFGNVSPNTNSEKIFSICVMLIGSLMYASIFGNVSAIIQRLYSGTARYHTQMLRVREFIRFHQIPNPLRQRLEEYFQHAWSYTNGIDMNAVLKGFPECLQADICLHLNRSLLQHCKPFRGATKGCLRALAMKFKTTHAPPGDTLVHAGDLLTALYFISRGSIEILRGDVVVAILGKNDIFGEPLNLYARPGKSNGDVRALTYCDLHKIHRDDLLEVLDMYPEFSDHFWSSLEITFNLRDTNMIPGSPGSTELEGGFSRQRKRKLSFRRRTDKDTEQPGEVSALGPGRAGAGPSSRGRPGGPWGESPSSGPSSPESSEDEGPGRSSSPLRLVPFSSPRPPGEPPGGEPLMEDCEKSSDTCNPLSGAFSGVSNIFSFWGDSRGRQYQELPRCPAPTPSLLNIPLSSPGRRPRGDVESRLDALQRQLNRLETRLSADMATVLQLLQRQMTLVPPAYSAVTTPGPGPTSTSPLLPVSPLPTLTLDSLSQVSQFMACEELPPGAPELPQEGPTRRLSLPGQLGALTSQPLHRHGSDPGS
A short description of series [2]: HCLint in vitro intrinsic clearance, human (HLM). The class given is in vitro ADME.
The nature of a further series: Kinetic solubility. The series is classed as physicochemical.
A short description of series [3]: Plasma pharmacokinetics in mouse. The series is classed as in vivo, female Balb/c mouse. To be noted: for AUC(0-t): read-out: AUC0-24 (converted). How it is done: To investigate the relationship between anticryptosporidial activity and systemic exposure the plasma pharmacokinetics for NZ-369 were measured. […] The pharmacokinetics of NZ-369 following single intravenous (IV) and oral administration (PO) at 3 and 10 mg free base/kg respectively to the female Balb/c mouse.

The subject of the next series is CP. The experiment in a line: Calf study of CP infection. The series is classed as in vivo, calves. The procedure: New born calves are susceptible to CP infection. They can develop severe diarrhea like humans. Calves were inoculated with 5×10^7 CP oocysts/calf on day 0. Calves had diarrhea in both the groups at onset of dosing. Treatment was started on day 3. Calves were given NZ-369 @ 8.5 mg/kg every 12 hrs for 5 days. Fecal volume, urine volume, daily clinical evaluation, fecal consistency scores and weight gains were evaluated.

The next series relates to Eimeria. The experiment in a line: Coccidiosis in broiler chicks, duodenal lesion scores. The series is classed as in vivo. The conditions noted are these: 20 mg/bird daily by oral gavage, FIG. 7. The procedure:
To determine the effects of NZ-366 and NZ-369 on coccidiosis in broiler chicks, experimental animals were divided into 4 treatment groups: Unmedicated (UNM), those receiving the experimental compounds (366 and 369); and those receiving Salinomycin (SAL).
Compounds NZ-366 and NZ-369 were administered at a dose of 20 mg/bird by oral gavage daily beginning from 11 days post-hatching. Salinomycin was administered in-feed beginning from 10 days post-hatching. Broilers were administered a 1000× dose of coccidiosis vaccine by oral gavage at 13 days post-hatching.
Lesion scores in the duodenum were lower in broiler chicks administered NZ-369 as compared to unmedicated broilers and those administered NZ-366. […] In FIG. 7, lesion scores expressed as the mean±SEM from 24 broilers per treatment.

The mark [4] stands for this setting: female, Balb/c, mouse, plasma, 3 mg/kg, IV 3 mg free base/kg, single dose.
[5] abbreviates: female, Balb/c, mouse, plasma, 10 mg/kg, PO 10 mg free base/kg, single dose.

Regarding `CNC(=O)C(C)c1ccc(Oc2nc3ccc(Cl)cc3s2)cc1` (centres unmarked) [NZ-369, 2-{4-[(6-chloro-1,3-benzothiazol-2-yl)oxy]phenyl}-N-methylpropanamide], the IC50 in the series “in vitro” (Saccharomyces cerevisiae) is > 100 µM. Besides, in “in vitro” (human), the IC50 is > 100 µM. Besides, the “concentrations at which not toxic, S. cerevisiae cytotoxicity testing” value with S. cerevisiae is ≥ 100 µM. The “concentrations at which not toxic, human fibroblast cytotoxicity testing” value in the series with human fibroblast was ≥ 100 µM. For the same compound, the IC50 in series [1] is > 30 µM. In addition, the “HCLint (mL/min/g liver), HLM” value in series [2] is reported as “HLM = 0.69 mL/min/g liver”. For the same compound, the “Kinetic Sol.” value in the series “Kinetic solubility” worked out at 86 µM. Also, the “Clb” value in series [3] (IV 3 mg free base/kg, single dose) is given as 6.6 mL/min/kg. For the same compound, in series [3] (setting [4]), the half-life is 3.4 h and the AUC(0-t) is 7540 ng·h/mL. Also, the Vd in series [3] (female, Balb/c, mouse, plasma, 3 mg/kg, IV 3 mg free base/kg, single dose, read-out: Vdss) was 1.7 L/kg. In series [3] (setting [5]), the Cmax is 2160 ng/mL, the Tmax stood at 2 h and the AUC(0-t) was 19800 ng·h/mL. The compound also yielded a bioavailability in series [3] (female, Balb/c, mouse, plasma, 10 mg/kg, printed in the IV column, PO 10 vs IV 3 mg free base/kg) of 78.8%. In addition, the “systemic pharmacokinetics (in words)” value in series [3] (plasma) is listed as “excellent systemic pharmacokinetics”. In addition, in the series with CP (8.5 mg/kg every 12 hrs for 5 days from day 3, through day 8 post infection, FIG. 2), the “fecal volume vs control” value is on record as “marked reduction in fecal volume”. In addition, the clinical evaluation scores result in the series with CP (8.5 mg/kg every 12 hrs for 5 days, FIG. 4) is “higher clinical evaluation scores and greater improvement post-infection”. Moreover, the “weight over the trial period vs control calf” value in the series on CP (8.5 mg/kg every 12 hrs for 5 days, FIG. 6) was “maintained their weight”. Besides, in the series with CP (8.5 mg/kg every 12 hrs for 5 days, days 4-7 post infection, FIG. 5), the “fecal consistency score vs control calves” value is recorded as “lower fecal consistency score”. The “urine output vs control calves” value in the series with CP (8.5 mg/kg every 12 hrs for 5 days, except on day 4 post-infection, FIG. 3) is “Greater urine output”. Further, the “lesion scores in the duodenum vs unmedicated broilers and NZ-366” value in the series on Eimeria is listed as “lower”. Further, in the series with Eimeria (Salinomycin in-feed), the “reduction of duodenal lesion scores compared with Salinomycin” value is reported as “comparable to broiler chicks administered Salinomycin”.
